Measurements taken from US20010056089A1, “Novel crystal of cephalosporin compound” (FUJISAWA PHARMACEUTICAL CO., LTD., priority 1995, published 2001).

Experiments:
[1] = Stability test (1): one-month stability in an airtight container at 40° C.; format: physicochemical; conditions: potency by liquid chromatography
Experimental: The water-containing crystals and isopropyl alcohol and water-containing crystals of Compound (I) or a salt thereof obtained in Examples 5, 7 and 8(1) were tested.
The one-month stability of each test sample in an airtight container at 40° C. was evaluated.
The potency of each test sample was determined by liquid chromatography and the percentage residue of Compound (I) or a salt thereof was calculated.

[2] = Stability test (2): 9-day stability in an airtight container at 70° C.; format: physicochemical; conditions: potency by liquid chromatography
Experimental: Four lots of the isopropyl alcohol and water-containing crystal of compound (I) as obtained in Example 8 (2) were used.
The 9-day stability of each test sample in an airtight container at 70° C. was determined. The potency of each test sample was determined by liquid chromatography and the percentage residue was calculated.

[3] = Urinary excretion after oral administration; format: in vivo; conditions: male, SD, rat, urine; rats fasted overnight, 20 mg/kg oral, suspended in 0.5% methylcellulose; disk plate diffusion, Bacillus subtilis ATCC 6633; read-out: Recovery in 24-hrs urine (%)
Experimental: (C) Urinary Excretion Test Method Male SD rats (6-7 weeks old) from JCL were used. The test compound was suspended in 0.5% methylcellulose solution. The rats were fasted overnight before administration of 20 mg/kg. The urine was collected in the time slots of 0-6 and 6-24 hours after oral administration and the urinary recovery was determined by the disk plate diffusion method using Bacillus subtilis ATCC 6633 as the test organism and sodium citrate agar (0.8% sodium citrate, 0.5% polypeptone, 0.3% beef extract, and 1.0% agar) as the test medium.

[4] = Stability test of the crystal of Example 2 (conditions not stated); format: physicochemical

Compound | Residue (%) [1] | Residue (%) [2] | further results
Nc1nc(/C(=N/O)C(=O)N[C@@H]2C(=O)N3C(C(=O)O)=C(SCc4cn[nH]c4)CS[C@H]23)cs1 [Example 5, 7β-[2-(2-amino-thiazol-4-yl)-2-(Z)-(hydroxyimino)acetamido]-3-[(pyrazol-4-yl)methylthio]-3-cephem-4-carboxylic acid] | 98.2% | – | –
Nc1nc(/C(=N/O)C(=O)NC2C(=O)N3C(C(=O)O)=C(SCc4cn[nH]c4)CSC23)cs1 (stereo not drawn) [Example 35534OP] | – | 99.2% | –
Nc1nc(/C(=N/O)C(=O)N[C@@H]2C(=O)N3C(C(=O)O)=C(SCc4cn[nH]c4)CS[C@H]23)cs1 [Compound (I), 7β-[2-(2-aminothiazol-4-yl)-2-(Z)-(hydroxyimino)acetamido]-3-[(pyrazol-4-yl)methylthio]-3-cephem-4-carboxylic acid] | – | – | dose excreted [3]: 50%
Nc1nc(/C(=N/O)C(=O)N[C@@H]2C(=O)N3C(C(=O)O)=C(SCc4cn[nH]c4)CS[C@H]23)cs1 [Example 8(1), 7β-[2-(2-aminothiazol-4-yl)-2-(Z)-(hydroxyimino)acetamido]-3-[(pyrazol-4-yl)methylthio]-3-cephem-4-carboxylic acid] | 98.5% | – | –
Nc1nc(/C(=N/O)C(=O)NC2C(=O)N3C(C(=O)O)=C(SCc4cn[nH]c4)CSC23)cs1 (stereo not drawn) [Example 35414OP] | – | 98.7% | –
Nc1nc(/C(=N/O)C(=O)NC2C(=O)N3C(C(=O)O)=C(SCc4cn[nH]c4)CSC23)cs1 (stereo not drawn) [Example 35434OP] | – | 98.0% | –
Nc1nc(/C(=N/O)C(=O)NC2C(=O)N3C(C(=O)O)=C(SCc4cn[nH]c4)CSC23)cs1 (stereo not drawn) [Example 37914XP] | – | 98.0% | –
Nc1nc(/C(=N/O)C(=O)N[C@@H]2C(=O)N3C(C(=O)O)=C(SCc4cn[nH]c4)CS[C@H]23)cs1 [Example 2, 7β-[2-(2-aminothiazol-4-yl)-2-(Z)-(hydroxyimino)acetamido]-3-[(pyrazol-4-yl)methylthio]-3-cephem-4-carboxylic acid] | – | – | stability in the stability test [4]: stable
Nc1nc(/C(=N/O)C(=O)N[C@@H]2C(=O)N3C(C(=O)O)=C(SCc4cn[nH]c4)CS[C@H]23)cs1 [Example 7, 7β-[2-(2-aminothiazol-4-yl)-2-(Z)-(hydroxyimino)acetamido]-3-[(pyrazol-4-yl)methylthio]-3-cephem-4-carboxylic acid] | 99.2% | – | –
